Results on 29 compounds are retold here after patent US20230312587A1, “PTERIDINONE COMPOUNDS AND USES THEREOF” (Vertex Pharmaceutical Incorporated, priority 2018, published 2023).

This assay relates to β-catenin-TCF-mediated reporter transcription activity in Colo 205 cells. As to the kind of experiment: Colo 205 reporter assay (TCF/LEF luciferase). Type of assay: cell-based. The settings on record: Colo 205 TCF/LEF luciferase reporter, five hours after addition of compound, read-out: TCF reporter Colo205 IC50. The method, boiled down: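 Luciferase signal from a TCF/LEF-driven reporter, stably integrated in Colo 205 colon cancer cells, was measured 5 h after compound addition.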

Where two headings read alike, the source gives them in different places.

For `COc1c(F)cc(O[C@H]2C[C@H](Nc3nc(C)c4c(n3)N(C)[C@@H](C)C(=O)N4)C2)cc1F` [Compound 287, (7S)-2-((trans-3-(3,5-difluoro-4-methoxyphenoxy)cyclobutyl)amino)-4,7,8-trimethyl-7,8-dihydropteridin-6(5H)-one], the IC50 (Homo sapiens, COLO 205, 5 h) was below 300 nM. As for `C[C@H]1C(=O)Nc2cnc(N[C@H]3C[C@@H](COCc4ccc(F)cc4)C3)nc2N1C` [Compound 288, (7S)-2-((cis-3-(((4-fluorobenzyl)oxy)methyl)cyclobutyl)amino)-7,8-dimethyl-7,8-dihydropteridin-6(5H)-one], where the note is “Homo sapiens, COLO 205, 5 h”, the IC50 is 300 to 1000 nM. For `Cc1nc(N[C@H]2C[C@H](Oc3ccc(F)c(F)c3F)C2)nc2c1NC(=O)[C@H](C)N2C` [Compound 291, (7S)-4,7,8-trimethyl-2-((trans 3-(2,3,4-trifluorophenoxy)cyclobutyl)amino)-7,8-dihydropteridin-6(5H)-one], the IC50 (Homo sapiens, COLO 205, 5 h) is below 300 nM.

Regarding `Cc1nc(N[C@H]2C[C@H](Oc3ccc(F)c(F)c3F)C2)nc2c1N(C)C(=O)[C@H](C)N2C` [Compound 293, (7S)-4,5,7,8-tetramethyl-2-((trans-3-(2,3,4-trifluorophenoxy)cyclobutyl)-amino)-7,8-dihydropteridin-6(5H)-one], where the note is “Homo sapiens, COLO 205, 5 h”, the IC50 was below 300 nM. Take `Cc1nc(N[C@H]2C[C@H](Oc3cc(F)c(F)cc3F)C2)nc2c1N(C)C(=O)[C@H](C)N2C` [Compound 294, (7S)-4,5,7,8-tetramethyl-2-((trans-3-(2,4,5-trifluorophenoxy)-cyclobutyl)amino)-7,8-dihydropteridin-6(5H)-one]: where the note is “Homo sapiens, COLO 205, 5 h”, the IC50 is below 300 nM. As to `Cc1nc(N[C@H]2C[C@H](Oc3ccc(F)cc3F)C2)nc2c1N(C)C(=O)[C@H](C)N2C` [Compound 296, (7S)-2-((trans-3-(2,4-difluorophenoxy)cyclobutyl)amino)-4,5,7,8-tetramethyl-7,8-dihydropteridin-6(5H)-one], the IC50 (Homo sapiens, COLO 205, 5 h) was below 300 nM. Regarding `Cc1nc(N[C@H]2CO[C@H](COc3cc(F)c(F)c(F)c3)C2)nc2c1NC(=O)[C@H](C)N2C` [Compound 301, (7S)-4,7,8-trimethyl-2-(((3R,5S)-5-((3,4,5-trifluorophenoxy)methyl)tetrahydrofuran-3-yl)amino)-7,8-dihydropteridin-6(5H)-one], the concentration for half-maximal inhibition (IC50) is below 300 nM.

Take `Cc1nc(N[C@H]2CO[C@H](COc3cc(F)c(F)c(F)c3)C2)nc2c1NC(=O)[C@H](C)N2C` [Compound 302, (7S)-4,7,8-trimethyl-2-(((3R,5S)-5-((3,4,5-trifluorophenoxy)methyl)tetrahydrofuran-3-yl)amino)-7,8-dihydropteridin-6(5H)-one]: the IC50 lay within 1000 to 5000 nM. Regarding `Cc1nc(N[C@H]2C[C@H](Sc3ccc(F)cc3)C2)nc2c1NC(=O)[C@H](C)N2C` [Compound 303, (7S)-2-((trans-3-((4-fluorophenyl)thio)cyclobutyl)amino)-4,7,8-trimethyl-7,8-dihydropteridin-6(5H)-one], the IC50 (Homo sapiens, COLO 205, 5 h) lay within 300 to 1000 nM. In the case of `Cc1nc(N[C@H]2C[C@@H](Sc3ccc(F)cc3)C2)nc2c1NC(=O)[C@H](C)N2C` [Compound 304, (7S)-2-((cis-3-((4-fluorophenyl)thio)cyclobutyl)amino)-4,7,8-trimethyl-7,8-dihydropteridin-6(5H)-one], the IC50 (Homo sapiens, COLO 205, 5 h) lay within 300 to 1000 nM. Turning to `Cc1nc(NC2COC(Cn3nccc3C(F)(F)F)C2)nc2c1NC(=O)[C@H](C)N2C` (stereo partly drawn) [Compound 306, (7S)-4,7,8-trimethyl-2-((cis-5-((5-(trifluoromethyl)-1H-pyrazol-1-yl)methyl)-tetrahydrofuran-3-yl)amino)-7,8-dihydropteridin-6(5H)-one], the IC50 (Homo sapiens, COLO 205, 5 h) fell in the range of 1000 to 5000 nM.

As for `Cc1nc(N[C@@H]2CO[C@H](COc3cc(F)c(F)c(F)c3)C2)nc2c1NC(=O)[C@H](C)N2C` [Compound 308, (7S)-4,7,8-trimethyl-2-(((3S,5S)-5-((3,4,5-trifluorophenoxy)methyl)tetrahydrofuran-3-yl)amino)-7,8-dihydropteridin-6(5H)-one], the IC50 (Homo sapiens, COLO 205, 5 h) fell in the range of 1000 to 5000 nM.

Regarding `Cc1nc(N[C@H]2CO[C@@H](COc3cc(F)c(F)c(F)c3)C2)nc2c1NC(=O)[C@H](C)N2C` [Compound 309, (7S)-4,7,8-trimethyl-2-(((3R,5R)-5-((3,4,5-trifluorophenoxy)methyl)-tetrahydrofuran-3-yl)amino)-7,8-dihydropteridin-6(5H)-one], the concentration for half-maximal inhibition (IC50) (Homo sapiens, COLO 205, 5 h) fell in the range of 300 to 1000 nM. Take `CCN1C(=O)[C@H](C)N(C)c2nc(N[C@H]3C[C@H](Oc4cc(F)c(F)c(F)c4)C3)nc(C)c21` [Compound 312, (7S)-5-ethyl-4,7,8-trimethyl-2-((trans-3-(3,4,5-trifluorophenoxy)-cyclobutyl)amino)-7,8-dihydropteridin-6(5H)-one]: where the note is “Homo sapiens, COLO 205, 5 h”, the IC50 is below 300 nM. Consider `Cc1nc(N[C@H]2C[C@H](Oc3cc(F)c(F)c(F)c3)C2)nc2c1N(CC(F)(F)F)C(=O)[C@H](C)N2C` [Compound 313, (7S)-4,7,8-trimethyl-5-(2,2,2-trifluoroethyl)-2-((trans-3-(3,4,5-trifluorophenoxy)cyclobutyl)-amino)-7,8-dihydropteridin-6(5H)-one], for which the IC50 (Homo sapiens, COLO 205, 5 h) was at least 5000 nM.

`Cc1nc(N[C@H]2C[C@H](Oc3cncc(C(F)(F)F)c3)C2)nc2c1N(C)C(=O)[C@H](C)N2C` [Compound 314, (7S)-4,5,7,8-tetramethyl-2-((trans-3-((5-(trifluoromethyl)pyridin-3-yl)oxy)cyclobutyl)amino)-7,8-dihydropteridin-6(5H)-one]: the IC50 (Homo sapiens, COLO 205, 5 h) lay within 300 to 1000 nM. As to `Cc1nc(N[C@H]2C[C@H](Oc3cncc(C(F)(F)F)c3)C2)nc2c1NC(=O)[C@H](C)N2C` [Compound 315, (7S)-4,7,8-trimethyl-2-((trans-3-((5-(trifluoromethyl)pyridin-3-yl)oxy)cyclobutyl)amino)-7,8-dihydropteridin-6(5H)-one], the IC50 (Homo sapiens, COLO 205, 5 h) was below 300 nM. In the case of `Cc1nc(N[C@H]2C[C@H](Sc3ccc(C(F)(F)F)cc3)C2)nc2c1NC(=O)[C@H](C)N2C` [Compound 317, (7S)-4,7,8-trimethyl-2-((trans-3-((4-(trifluoromethyl)phenyl)thio)-cyclobutyl)amino)-7,8-dihydropteridin-6(5H)-one], under “Homo sapiens, COLO 205, 5 h”, the IC50 is 300 to 1000 nM. As to `Cc1nc(N[C@H]2C[C@H](Sc3ccc(C(F)(F)F)cc3)C2)nc2c1N(C)C(=O)[C@H](C)N2C` [Compound 320, (7S)-4,5,7,8-tetramethyl-2-((trans-3-((4(trifluoromethyl)phenyl)thio)-cyclobutyl)-amino)-7,8-dihydropteridin-6(5H)-one], where the note is “Homo sapiens, COLO 205, 5 h”, the IC50 lay within 1000 to 5000 nM. Still for that read-out and setting: to `Cc1nc(N[C@H]2C[C@@H](Sc3ccc(C(F)(F)F)cc3)C2)nc2c1NC(=O)[C@H](C)N2C` [Compound 321, (7S)-4,7,8-trimethyl-2-((cis-3-((4-(trifluoromethyl)phenyl)thio)cyclobutyl)amino)-7,8-dihydropteridin-6(5H)-one] belongs 300 to 1000 nM; to `Cc1nc(N[C@H]2C[C@@H](Sc3ccc(C(F)(F)F)cc3)C2)nc2c1N(C)C(=O)[C@H](C)N2C` [Compound 322, (7S)-4,5,7,8-tetramethyl-2-((cis-3-((4-(trifluoromethyl)phenyl)thio)cyclobutyl)amino)-7,8-dihydropteridin-6(5H)-one], 300 to 1000 nM; to `Cc1nc(N[C@H]2C[C@H](Oc3ccc(C(F)(F)F)nc3)C2)nc2c1N(C)C(=O)[C@H](C)N2C` [Compound 323, (7S)-4,5,7,8-tetramethyl-2-((trans-3-((6-(trifluoromethyl)pyridin-3-yl)oxy)cyclobutyl)amino)-7,8-dihydropteridin-6(5H)-one], below 300 nM. With `Cc1nc(N[C@H]2C[C@H](Oc3ccc(OC(F)(F)F)cc3)C2)nc2c1N(C)C(=O)[C@H](C)N2C` [Compound 325, (7S)-4,5,7,8-tetramethyl-2-((trans-3-(4-(trifluoromethoxy)phenoxy)-cyclobutyl)amino)-7,8-dihydropteridin-6(5H)-one], under “Homo sapiens, COLO 205, 5 h”, the IC50 was 300 to 1000 nM. `Cc1nc(N[C@H]2C[C@H](Oc3ccc(OC(F)(F)F)cc3)C2)nc2c1NC(=O)[C@H](C)N2C` [Compound 326, (7S)-4,7,8-trimethyl-2-((trans-3-(4-(trifluoromethoxy)phenoxy)-cyclobutyl)amino)-7,8-dihydropteridin-6(5H)-one]: the IC50 (Homo sapiens, COLO 205, 5 h) is below 300 nM. Regarding `[2H]C([2H])([2H])N1C(=O)[C@H](C)N(C)c2nc(N[C@H]3C[C@H](Oc4cc(F)c(F)c(F)c4)C3)nc(C)c21` [Compound 327, (7S)-4,7,8-trimethyl-5-(methyl-d3)-2-((trans-3-(3,4,5-trifluorophenoxy)-cyclobutyl)-amino)-7,8-dihydropteridin-6(5H)-one], the IC50 (Homo sapiens, COLO 205, 5 h) is below 300 nM.

As for `[2H]C([2H])([2H])C([2H])([2H])N1C(=O)[C@H](C)N(C)c2nc(N[C@H]3C[C@H](Oc4cc(F)c(F)c(F)c4)C3)nc(C)c21` [Compound 328, (7S)-5-(ethyl-d5)-4,7,8-trimethyl-2-((trans-3-(3,4,5-trifluorophenoxy)-cyclobutyl)amino)-7,8-dihydropteridin-6(5H)-one], the IC50 (Homo sapiens, COLO 205, 5 h) was below 300 nM. For the compound `Cc1nc(N[C@H]2C[C@H](Sc3cc(F)c(F)c(F)c3)C2)nc2c1N(C)C(=O)[C@H](C)N2C` [Compound 330, (7S)-4,5,7,8-tetramethyl-2-((trans-3-((3,4,5-trifluorophenyl)thio)-cyclobutyl)amino)-7,8-dihydropteridin-6(5H)-one], the IC50 (Homo sapiens, COLO 205, 5 h) fell in the range of 300 to 1000 nM. `Cc1nc(N[C@H]2C[C@@H](Sc3cc(F)c(F)c(F)c3)C2)nc2c1N(C)C(=O)[C@H](C)N2C` [Compound 331, (7S)-4,5,7,8-tetramethyl-2-((cis-3-((3,4,5-trifluorophenyl)thio)cyclobutyl)amino)-7,8-dihydropteridin-6(5H)-one]: the IC50 (Homo sapiens, COLO 205, 5 h) is below 300 nM. With `Cc1nc(N[C@H]2C[C@H](Oc3cnc(C(F)(F)F)nc3)C2)nc2c1NC(=O)[C@H](C)N2C` [Compound 333, (7S)-4,7,8-trimethyl-2-((trans-3-((2-(trifluoromethyl)pyrimidin-5-yl)oxy)cyclobutyl)amino)-7,8-dihydropteridin-6(5H)-one], for the setting “Homo sapiens, COLO 205, 5 h”, the IC50 was below 300 nM.
